Assay results as given in ChEMBL document CHEMBL5042492, “Noncovalent CDK12/13 dual inhibitors-based PROTACs degrade CDK12-Cyclin K complex and induce synthetic lethality with PARP inhibitor” (Eur J Med Chem, 2022).
The source made the active and inactive calls. The rule behind the calls is not given here.

Key:
[1] = system: MDA-MB-231; assay: Synergistic antiproliferative activity against human MDA-MB-231 cells in presence of 1 uM of Olaparib at 1 uM for 10 days by Chou-Talalay method; type: functional; settings: time 10 day
[2] = system: MDA-MB-231; assay: Synergistic antiproliferative activity against human MDA-MB-231 cells in presence of 3 uM of Olaparib at 1 uM measured after 10 days by Chou-Talalay method; type: functional; settings: time 10 day
[3] = system: MDA-MB-231; assay: Synergistic antiproliferative activity against human MDA-MB-231 cells in presence of 1 uM of Olaparib at 3 uM measured after 10 days by Chou-Talalay method; type: functional; settings: time 10 day
[4] = system: MDA-MB-231; assay: Synergistic antiproliferative activity against human MDA-MB-231 cells in presence of 3 uM of Olaparib at 3 uM measured after 10 days by Chou-Talalay method; type: functional; settings: time 10 day
[5] = target: T1, Protein cereblon/Cyclin-dependent kinase 13 (Homo sapiens) (UniProt Q14004+Q96SW2); assay: Protac activity at human CRBN/CDK13 in human Bel-7402 cells assessed as degradation of CDK13 at 0.1 to 30 uM measured after 24 hrs by Western blotting assay; type: cell-based; settings: dose 0.1-30 µM
[6] = target: T1, Protein cereblon/Cyclin-dependent kinase 13 (Homo sapiens); assay: Protac activity at human CRBN/CDK13 in human MDA-MB-231 cells assessed as degradation of CDK13 at 0.1 to 30 uM measured after 24 hrs by Western blotting assay; type: cell-based; settings: dose 0.1-30 µM
[7] = target: T2, Protein cereblon/Cyclin-K/Cyclin-dependent kinase 12 (Homo sapiens, UniProt O75909+Q9NYV4+Q96SW2); assay: Protac activity at human CRBN/CDK12/CycK in human Bel-7402 cells assessed as degradation of Cyclin H upto 30 uM measured after 24 hrs by Western blotting assay; type: cell-based; settings: dose microM <=30, time 24.0 hrs
[8] = target: T2, Protein cereblon/Cyclin-K/Cyclin-dependent kinase 12; assay: Protac activity at human CRBN/CDK12/CycK in human MDA-MB-231 cells assessed as degradation of Cyclin H up to 30 uM measured after 24 hrs by Western blotting assay; type: cell-based; settings: dose microM <=30, time 24.0 hrs
[9] = target: T2, Protein cereblon/Cyclin-K/Cyclin-dependent kinase 12; assay: Protac activity at human CRBN/CDK12/CycK in human Bel-7402 cells assessed as degradation of Cyclin T1 upto 30 uM measured after 24 hrs by Western blotting assay; type: cell-based; settings: dose microM <=30, time 24.0 hrs
[10] = target: T2, Protein cereblon/Cyclin-K/Cyclin-dependent kinase 12; assay: Protac activity at human CRBN/CDK12/CycK in human MDA-MB-231 cells assessed as degradation of Cyclin T1 up to 30 uM measured after 24 hrs by Western blotting assay; type: cell-based; settings: dose microM <=30, time 24.0 hrs
[11] = target: T2, Protein cereblon/Cyclin-K/Cyclin-dependent kinase 12; assay: Protac activity at human CRBN/CDK12/CycK in human Bel-7402 cells assessed as degradation of CK1alpha upto 30 uM measured after 24 hrs by Western blotting assay; type: cell-based; settings: dose microM <=30, time 24.0 hrs
[12] = target: T2, Protein cereblon/Cyclin-K/Cyclin-dependent kinase 12; assay: Protac activity at human CRBN/CDK12/CycK in human MDA-MB-231 cells assessed as degradation of CK1alpha up to 30 uM measured after 24 hrs by Western blotting assay; type: cell-based; settings: dose microM <=30, time 24.0 hrs
[13] = target: T2, Protein cereblon/Cyclin-K/Cyclin-dependent kinase 12; assay: Protac activity at human CRBN/CDK12/CycK in human Bel-7402 cells assessed as degradation of GSPT1 upto 30 uM measured after 24 hrs by Western blotting assay; type: cell-based; settings: dose microM <=30, time 24.0 hrs
[14] = target: T2, Protein cereblon/Cyclin-K/Cyclin-dependent kinase 12; assay: Protac activity at human CRBN/CDK12/CycK in human MDA-MB-231 cells assessed as degradation of GSPT1 up to 30 uM measured after 24 hrs by Western blotting assay; type: cell-based; settings: dose microM <=30, time 24.0 hrs
[15] = target: T2, Protein cereblon/Cyclin-K/Cyclin-dependent kinase 12; assay: Protac activity at human CRBN/CDK12/CycK in human MDA-MB-231 cells assessed as downregulation of Mcl-1 level upto 30 uM measured after 24 hrs by Western blotting assay; type: cell-based; settings: dose microM <=30, time 24.0 hrs
[16] = target: T2, Protein cereblon/Cyclin-K/Cyclin-dependent kinase 12; assay: Protac activity at human CRBN/CDK12/CycK in human Bel-7402 cells assessed as degradation of CDK12 at 1 to 3 uM for 24 hrs in presence of MG132 by Western blotting assay; type: cell-based; settings: dose 1-3 µM
[17] = target: T2, Protein cereblon/Cyclin-K/Cyclin-dependent kinase 12; assay: Protac activity at human CRBN/CDK12/CycK in human Bel-7402 cells assessed as degradation of CycK at 1 to 3 uM for 24 hrs in presence of MG132 by Western blotting assay; type: cell-based; settings: dose 1-3 µM
[18] = target: T2, Protein cereblon/Cyclin-K/Cyclin-dependent kinase 12; assay: Protac activity at human CRBN/CDK12/CycK in human MDA-MB-231 cells assessed as degradation of CDK12 at 1 to 3 uM for 24 hrs in presence of MG132 by Western blotting assay; type: cell-based; settings: dose 1-3 µM
[19] = target: T2, Protein cereblon/Cyclin-K/Cyclin-dependent kinase 12; assay: Protac activity at human CRBN/CDK12/CycK in human MDA-MB-231 cells assessed as degradation of CycK a 1 to 3 uM for 24 hrs in presence of MG132 by Western blotting assay; type: cell-based; settings: dose 1-3 µM
[20] = target: T2, Protein cereblon/Cyclin-K/Cyclin-dependent kinase 12; assay: Protac activity at human CRBN/CDK12/CycK in human Bel-7402 cells assessed as CDK12 mRNA expression measured after 6 hrs by RT-qPCR method; type: cell-based
[21] = target: T2, Protein cereblon/Cyclin-K/Cyclin-dependent kinase 12; assay: Protac activity at human CRBN/CDK12/CycK in human MDA-MB-231 cells assessed as CDK12 mRNA expression measured after 6 hrs by RT-qPCR method; type: cell-based
[22] = target: T2, Protein cereblon/Cyclin-K/Cyclin-dependent kinase 12; assay: Protac activity at human CRBN/CDK12/CycK in human Bel-7402 cells assessed as CycK mRNA expression measured after 6 hrs by RT-qPCR method; type: cell-based
[23] = target: T2, Protein cereblon/Cyclin-K/Cyclin-dependent kinase 12; assay: Protac activity at human CRBN/CDK12/CycK in human MDA-MB-231 cells assessed as CycK mRNA expression measured after 6 hrs by RT-qPCR method; type: cell-based
[24] = system: MDA-MB-231; assay: Antiproliferative activity against human MDA-MB-231 cells at 1 uM for 10 days by SRB staining based clone formation assay relative to control; type: functional; settings: MDA-MB-231, 240 h, time 10 day
[25] = system: MDA-MB-231; assay: Antiproliferative activity against human MDA-MB-231 cells at 3 uM for 10 days by SRB staining based clone formation assay relative to control; type: functional; settings: MDA-MB-231, 240 h, time 10 day

T2 sequence (O75909 whole entry, looked up): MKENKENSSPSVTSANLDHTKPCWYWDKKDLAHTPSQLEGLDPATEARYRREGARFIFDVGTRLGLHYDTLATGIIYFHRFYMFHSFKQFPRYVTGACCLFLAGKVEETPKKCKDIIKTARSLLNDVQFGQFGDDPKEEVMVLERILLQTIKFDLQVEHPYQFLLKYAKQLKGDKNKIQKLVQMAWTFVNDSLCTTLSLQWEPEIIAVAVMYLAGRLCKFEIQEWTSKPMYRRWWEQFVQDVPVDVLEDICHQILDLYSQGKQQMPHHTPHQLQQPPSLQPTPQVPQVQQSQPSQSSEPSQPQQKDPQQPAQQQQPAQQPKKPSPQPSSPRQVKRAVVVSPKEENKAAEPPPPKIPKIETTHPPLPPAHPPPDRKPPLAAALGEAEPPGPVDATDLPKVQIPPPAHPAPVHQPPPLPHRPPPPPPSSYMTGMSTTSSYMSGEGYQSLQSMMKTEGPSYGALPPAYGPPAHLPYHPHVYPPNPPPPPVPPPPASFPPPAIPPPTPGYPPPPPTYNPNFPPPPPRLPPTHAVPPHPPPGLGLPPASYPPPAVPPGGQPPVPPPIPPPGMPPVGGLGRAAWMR
T2 sequence (Q96SW2 whole entry, looked up): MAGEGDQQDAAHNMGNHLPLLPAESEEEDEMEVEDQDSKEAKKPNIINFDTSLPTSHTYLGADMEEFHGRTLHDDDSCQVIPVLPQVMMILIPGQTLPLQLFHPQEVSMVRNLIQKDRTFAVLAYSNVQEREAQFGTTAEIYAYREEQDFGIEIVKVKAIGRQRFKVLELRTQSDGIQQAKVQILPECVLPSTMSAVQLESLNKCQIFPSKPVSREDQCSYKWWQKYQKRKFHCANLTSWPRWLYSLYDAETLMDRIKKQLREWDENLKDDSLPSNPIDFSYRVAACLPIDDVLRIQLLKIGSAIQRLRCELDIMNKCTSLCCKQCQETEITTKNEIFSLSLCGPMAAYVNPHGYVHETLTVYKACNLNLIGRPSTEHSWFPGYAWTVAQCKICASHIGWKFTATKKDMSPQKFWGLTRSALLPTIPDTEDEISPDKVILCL
T2 sequence (Q9NYV4 whole entry, looked up): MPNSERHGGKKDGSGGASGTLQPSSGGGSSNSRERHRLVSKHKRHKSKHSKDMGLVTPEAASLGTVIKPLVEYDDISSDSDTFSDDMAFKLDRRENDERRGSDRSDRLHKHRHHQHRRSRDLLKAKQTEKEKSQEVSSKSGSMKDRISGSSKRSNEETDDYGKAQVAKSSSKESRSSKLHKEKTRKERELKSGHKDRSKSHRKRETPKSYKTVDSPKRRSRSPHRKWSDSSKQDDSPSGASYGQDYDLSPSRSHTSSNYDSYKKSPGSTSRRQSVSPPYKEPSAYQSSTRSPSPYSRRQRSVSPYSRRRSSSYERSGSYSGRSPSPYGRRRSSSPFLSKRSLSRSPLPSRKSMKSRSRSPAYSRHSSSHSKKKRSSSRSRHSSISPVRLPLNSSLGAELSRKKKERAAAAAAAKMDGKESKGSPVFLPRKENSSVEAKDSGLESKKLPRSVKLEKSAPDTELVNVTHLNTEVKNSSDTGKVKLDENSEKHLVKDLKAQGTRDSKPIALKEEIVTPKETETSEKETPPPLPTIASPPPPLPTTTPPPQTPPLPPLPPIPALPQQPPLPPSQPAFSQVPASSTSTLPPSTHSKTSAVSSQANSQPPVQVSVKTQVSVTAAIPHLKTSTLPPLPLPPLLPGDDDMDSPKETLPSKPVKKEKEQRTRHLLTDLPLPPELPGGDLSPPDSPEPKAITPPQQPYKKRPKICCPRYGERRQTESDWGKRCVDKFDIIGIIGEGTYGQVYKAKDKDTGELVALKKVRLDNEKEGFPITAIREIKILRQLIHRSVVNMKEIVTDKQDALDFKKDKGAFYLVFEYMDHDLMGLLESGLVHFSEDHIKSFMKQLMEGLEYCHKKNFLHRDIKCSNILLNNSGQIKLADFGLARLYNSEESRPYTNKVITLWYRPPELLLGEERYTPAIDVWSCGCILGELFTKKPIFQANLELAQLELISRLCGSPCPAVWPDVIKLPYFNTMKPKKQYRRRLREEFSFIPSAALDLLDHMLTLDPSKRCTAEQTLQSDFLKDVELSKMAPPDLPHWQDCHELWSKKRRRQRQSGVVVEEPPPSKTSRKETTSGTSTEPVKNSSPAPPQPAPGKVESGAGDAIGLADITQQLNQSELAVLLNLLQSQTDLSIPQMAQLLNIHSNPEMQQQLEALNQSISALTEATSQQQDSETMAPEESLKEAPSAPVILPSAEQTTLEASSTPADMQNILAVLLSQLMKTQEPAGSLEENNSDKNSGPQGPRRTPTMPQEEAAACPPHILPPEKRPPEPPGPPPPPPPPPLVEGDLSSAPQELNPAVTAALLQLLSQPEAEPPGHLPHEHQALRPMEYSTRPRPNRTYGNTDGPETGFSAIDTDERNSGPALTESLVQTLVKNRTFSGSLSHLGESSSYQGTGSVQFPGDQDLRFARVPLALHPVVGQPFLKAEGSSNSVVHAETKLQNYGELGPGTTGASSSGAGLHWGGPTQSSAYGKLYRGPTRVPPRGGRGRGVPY
T1 sequence (Q14004 whole entry, looked up): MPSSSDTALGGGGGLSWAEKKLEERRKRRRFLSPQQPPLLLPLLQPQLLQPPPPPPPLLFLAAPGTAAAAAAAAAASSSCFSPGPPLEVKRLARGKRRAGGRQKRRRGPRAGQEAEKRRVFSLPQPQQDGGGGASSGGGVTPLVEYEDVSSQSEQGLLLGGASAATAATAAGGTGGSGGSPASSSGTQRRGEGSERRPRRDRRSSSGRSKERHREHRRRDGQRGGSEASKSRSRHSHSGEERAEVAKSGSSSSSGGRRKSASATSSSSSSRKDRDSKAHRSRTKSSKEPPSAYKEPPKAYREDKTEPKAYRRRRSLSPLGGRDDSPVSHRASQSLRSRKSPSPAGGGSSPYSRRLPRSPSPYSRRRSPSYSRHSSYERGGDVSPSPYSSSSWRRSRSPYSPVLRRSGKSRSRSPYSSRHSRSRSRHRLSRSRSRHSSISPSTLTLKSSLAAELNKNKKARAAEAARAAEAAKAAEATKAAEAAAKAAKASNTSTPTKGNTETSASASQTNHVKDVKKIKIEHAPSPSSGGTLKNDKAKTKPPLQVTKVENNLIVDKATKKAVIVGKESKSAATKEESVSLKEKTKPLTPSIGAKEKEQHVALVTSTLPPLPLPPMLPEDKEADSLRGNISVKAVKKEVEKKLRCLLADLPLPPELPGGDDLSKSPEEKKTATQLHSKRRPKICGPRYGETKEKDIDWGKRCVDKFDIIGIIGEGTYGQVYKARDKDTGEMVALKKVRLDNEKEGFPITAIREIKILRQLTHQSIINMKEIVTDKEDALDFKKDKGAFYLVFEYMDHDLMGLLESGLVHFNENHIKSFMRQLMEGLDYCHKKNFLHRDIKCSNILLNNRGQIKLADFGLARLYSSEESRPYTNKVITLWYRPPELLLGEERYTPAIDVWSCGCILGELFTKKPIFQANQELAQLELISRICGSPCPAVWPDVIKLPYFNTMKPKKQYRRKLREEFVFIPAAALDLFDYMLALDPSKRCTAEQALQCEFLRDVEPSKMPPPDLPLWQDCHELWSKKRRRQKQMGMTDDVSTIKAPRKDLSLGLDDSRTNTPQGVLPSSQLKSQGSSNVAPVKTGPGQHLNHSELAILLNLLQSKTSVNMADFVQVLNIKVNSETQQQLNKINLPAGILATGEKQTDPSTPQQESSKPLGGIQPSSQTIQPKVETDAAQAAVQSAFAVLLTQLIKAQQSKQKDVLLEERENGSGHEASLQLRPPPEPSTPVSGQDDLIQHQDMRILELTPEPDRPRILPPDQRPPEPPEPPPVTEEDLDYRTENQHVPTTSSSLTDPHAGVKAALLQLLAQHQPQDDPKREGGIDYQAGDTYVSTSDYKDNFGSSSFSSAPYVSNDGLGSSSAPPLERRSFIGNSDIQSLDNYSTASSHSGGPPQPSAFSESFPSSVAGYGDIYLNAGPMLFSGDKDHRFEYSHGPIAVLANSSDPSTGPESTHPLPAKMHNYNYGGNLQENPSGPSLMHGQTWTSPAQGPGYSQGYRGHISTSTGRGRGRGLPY
T1 sequence (Q96SW2 whole entry, looked up): as the sequence (Q96SW2 whole entry, looked up) above

Activity [5]: Active
Activity [6]: inactive
Activity [7]: inactive
Activity [8]: inactive
Activity [9]: inactive
Activity [10]: inactive
Activity [11]: inactive
Activity [12]: inactive
Activity [13]: inactive
Activity [14]: inactive
Activity [15]: inactive
Activity [16]: inactive
Activity [17]: inactive
Activity [18]: inactive
Activity [19]: inactive
Activity [20]: inactive
Activity [21]: inactive
Activity [22]: inactive
Activity [23]: inactive
Compound: CC(C)n1cnc2c(NCc3nc4cc(F)c(NCCCCCCCCNC(=O)COc5cccc6c5C(=O)N(C5CCC(=O)NC5=O)C6=O)cc4[nH]3)nc(N3CCOCC3)nc21 (stereo not given)
CI [1]: 0.65
CI [2]: 0.75
CI [3]: 0.29
CI [4]: 0.62
inhibition at 1 µM [24]: 1.05%
inhibition at 3 µM [25]: 6.47%
